The results in this text go back to patent US7803801B2, “Aminopyridine compounds having Syk inhibitory activity” (Japan Tobacco, Inc., priority 2005, dated 2010).

Assay [1] concerns the target GST-Syk Full Protein (human) (Homo sapiens, UniProt P43405). Nature of the assay: Syk kinase inhibition test (HTRF method). In kind it is biochemical. Conditions: Tables 2-x, thiophene compounds B; read-out: sykHTRK ave IC50. An outline of the steps: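 Human GST-Syk full-length (6.4 nM) phosphorylated biotin-EDPDYEWPSA-NH2 (250 nM) with 100 μM ATP in HEPES pH 7.0/MgCl2 buffer, 2% DMSO, 30 min at room temperature. EDTA stop, then HTRF detection (streptavidin-XL665, Eu anti-phosphotyrosine) after 1 h; 665/620 ratio read.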
A general note: In TR-FRET formats the signal depends on donor and acceptor labels being close together.

The test system of assay [2] is cultured human mast cells. Nature of the assay: Degranulation inhibition test using cultured human mast cells (IgE cross-linking, β-Hexosaminidase release). In kind it is cell-based. Conditions: Mast cell; Tables 2-x, thiophene compounds B; cultured human mast cells; read-out: human degranulation ave. IC50. An outline of the steps:
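CD34+ cord-blood cells cultured ≥8 weeks with SCF/IL-6/IL-3; FcεRI primed 5 days with rhIL-4 (1 ng/mL) and hIgE (0.5 μg/mL). Compound (0.1% DMSO) preincubated 10 min at 37 °C, then anti-IgE (final 10 μg/mL) 30 min; released β-hexosaminidase read at 405 nm versus total lysate, IC50 (M).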

A value given as a limit tells only on which side of the number the result lay.

In general, IC50 refers to the point on the concentration scale where inhibition reaches its midpoint. In the case of `Cc1ccnc(Nc2cccc(-c3cccs3)n2)c1` [Compound B-27], the IC50 in assay [1] is 100 to 1000 nM; in assay [2] it was greater than 1000 nM.
Regarding `Cc1ccnc(Nc2cccc(-c3ccc([N+](=O)[O-])s3)n2)c1` [Compound B-28], the half-maximal inhibitory concentration (IC50) in assay [1] is 100 to 1000 nM; in assay [2], greater than 1000 nM.
For `CC(=O)c1ccc(-c2ncc(C)c(Nc3cc(C)ccn3)n2)s1` [Compound B-29], in that order: 100 to 1000 nM and greater than 1000 nM.
Regarding `CC(=O)c1ccc(-c2cccc(Nc3cc(OC(C)C)ncn3)n2)s1` [Compound B-30, 1-{5-[6-(6-isopropoxypyrimidin-4-ylamino)pyridin-2-yl]thiophen-2-yl}ethanone], the half-inhibitory concentration (IC50) in assay [1] was less than 100 nM; in assay [2], greater than 1000 nM.
Turning to `CO/N=C(\C)c1ccc(-c2cccc(Nc3cc(N(C)C)ncn3)n2)s1` [Compound B-32], the IC50 in assay [1] and in assay [2] was greater than 1000 nM in each case.
With `CO/N=C(\C)c1ccc(-c2cccc(Nc3cc(OC(C)C)ncn3)n2)s1` [Compound B-33], the figures for the 50% inhibitory concentration (IC50) in assay [1] and in assay [2] were 100 to 1000 nM and greater than 1000 nM, respectively.
Consider `Cc1ccnc(Nc2cccc(-c3ccc(NC(=O)OC(C)(C)C)s3)n2)c1` [Compound B-34], for which the IC50 in assay [1] was 100 to 1000 nM; in assay [2], greater than 1000 nM.
For the molecule `Cc1ccnc(Nc2cccc(-c3ccc(NC(=O)[C@H](C)O)s3)n2)c1` [Compound B-35], the IC50 in assay [1] and in assay [2] was 100 to 1000 nM in each case.
Turning to `COC(=O)c1sc(-c2cccc(Nc3cc(C)ccn3)n2)cc1C` [Compound B-36], the IC50 in assay [1] is 100 to 1000 nM; in assay [2], greater than 1000 nM.
On to `Cc1ccnc(Nc2cccc(-c3cc(C)c(C(=O)O)s3)n2)c1` [Compound B-37], for which the values for the half-inhibitory concentration (IC50) in assay [1] and in assay [2] were 100 to 1000 nM and greater than 1000 nM, respectively.
For `C/C(=N\OCCO)c1ccc(-c2cccc(Nc3cc(C)ccn3)n2)s1` [Compound B-38, 1-{5-[6-(4-methylpyridin-2-ylamino)pyridin-2-yl]thiophen-2-yl}ethanone O-(2-hydroxyethyl)oxime], in that order: less than 100 nM and 100 to 1000 nM.
Consider `Cc1ccnc(Nc2cccc(-c3ccc(C4=NC(C)(C)CO4)s3)n2)c1` [Compound B-39], for which the half-inhibitory concentration (IC50) in assay [1] is 100 to 1000 nM; in assay [2] it was greater than 1000 nM.
Taken in the same sequence, the figures for `CC(=O)c1sc(-c2cccc(Nc3cc(C)ccn3)n2)cc1C` [Compound B-40] were 100 to 1000 nM and greater than 1000 nM.
As to `Cc1ccnc(Nc2cccc(-c3ccc(C(=O)NCC(C)O)s3)n2)c1` (stereo not shown) [Compound B-41], the IC50 in assay [1] and in assay [2] was 100 to 1000 nM each time.
`CC(=NO)c1sc(-c2cccc(Nc3cc(C)ccn3)n2)cc1C` [Compound B-42]: the IC50 was 100 to 1000 nM in assay [1] and greater than 1000 nM in assay [2].
For the molecule `Cc1ccnc(Nc2cccc(-c3ccc(C(=O)NCCN)s3)n2)c1` [Compound B-43, N-(2-aminoethyl)-5-[6-(4-methylpyridin-2-ylamino)pyridin-2-yl]thiophene-2-carboxamide], the results for the IC50 in assay [1] and in assay [2] were less than 100 nM and greater than 1000 nM, respectively.
Take `COC(=O)c1cc(Br)nc(Nc2cccc(-c3ccc(C(C)=O)s3)n2)c1` [Compound B-44]: the IC50 in assay [1] and in assay [2] was greater than 1000 nM each time.
Take `Cc1ccnc(Nc2cccc(-c3ccc(C(O)C(C)C)s3)n2)c1` (stereo not shown) [Compound B-45]: the IC50 in assay [1] is 100 to 1000 nM; in assay [2], greater than 1000 nM.
For `COCCO/N=C(\C)c1ccc(-c2cccc(Nc3cc(C)ccn3)n2)s1` [Compound B-46], in that order: 100 to 1000 nM and greater than 1000 nM.
Regarding `CCC(O)c1ccc(-c2cccc(Nc3cc(C)ccn3)n2)s1` (stereo not shown) [Compound B-47], the half-maximal inhibitory concentration (IC50) in assay [1] and in assay [2] was 100 to 1000 nM throughout.
For the molecule `CCC(=O)c1ccc(-c2cccc(Nc3cc(C)ccn3)n2)s1` [Compound B-48], the results for the 50% inhibitory concentration (IC50) in assay [1] and in assay [2] were 100 to 1000 nM and greater than 1000 nM, respectively.
For `Cc1ccnc(Nc2cccc(-c3ccc(C(=O)C(C)C)s3)n2)c1` [Compound B-49], in that order: 100 to 1000 nM and greater than 1000 nM.
On to `Cc1ccnc(Nc2cccc(-c3ccc(C(=NO)C(C)C)s3)n2)c1` [Compound B-50], for which the figures for the IC50 in assay [1] and in assay [2] were 100 to 1000 nM and greater than 1000 nM, respectively.
Turning to `CCC(=NO)c1ccc(-c2cccc(Nc3cc(C)ccn3)n2)s1` [Compound B-51, 1-{5-[6-(4-methylpyridin-2-ylamino)pyridin-2-yl]thiophen-2-yl}propan-1-one oxime], the IC50 is less than 100 nM in assay [1] and greater than 1000 nM in assay [2].
For `CCOC(=O)Cc1ccnc(Nc2cccc(-c3ccc(C(C)=O)s3)n2)c1` [Compound B-52, {2-[6-(5-acetylthiophen-2-yl)pyridin-2-ylamino]pyridin-4-yl}acetic acid ethyl ester], the figures for the IC50 in assay [1] and in assay [2] were less than 100 nM and greater than 1000 nM, respectively.
Regarding `COC(=O)c1ccnc(Nc2cccc(-c3ccc(C(C)=O)s3)n2)c1` [Compound B-53, 2-[6-(5-acetylthiophen-2-yl)pyridin-2-ylamino]isonicotinic acid methyl ester], the IC50 in assay [1] is less than 100 nM; in assay [2], greater than 1000 nM.
With `Cc1ccnc(Nc2cccc(-c3ccc(C(O)CCO)s3)n2)c1` (stereo not shown) [Compound B-54], the IC50 in assay [1] and in assay [2] was 100 to 1000 nM each time.
On to `CC(O)c1ccc(-c2cccc(Nc3cc(CCO)ccn3)n2)s1` (stereo not shown) [Compound B-55, 1-(5-{6-[4-(2-hydroxyethyl)pyridin-2-ylamino]pyridin-2-yl}thiophen-2-yl)ethanol], for which the half-inhibitory concentration (IC50) in assay [1] was less than 100 nM; in assay [2], 100 to 1000 nM.
For `CC(=O)c1ccc(-c2cccc(Nc3cc(CCO)ccn3)n2)s1` [Compound B-56], in that order: 100 to 1000 nM and 100 to 1000 nM.
Taken in the same sequence, the figures for `Cc1ccnc(Nc2cccc(-c3ccc(C(=O)CCO)s3)n2)c1` [Compound B-57] were 100 to 1000 nM and 100 to 1000 nM.
For `CC(=O)c1ccc(-c2cccc(Nc3cc(C(=O)O)ccn3)n2)s1` [Compound B-58], in that order: greater than 1000 nM and greater than 1000 nM.
`Cc1ccnc(Nc2cccc(-c3ccc(C#N)s3)n2)c1` [Compound B-59]: the concentration for half-maximal inhibition (IC50) in assay [1] was 100 to 1000 nM; in assay [2], greater than 1000 nM.
`Cc1ccnc(Nc2cccc(-c3ccc(/C(N)=N/O)s3)n2)c1` [Compound B-60, N-hydroxy-5-[6-(4-methylpyridin-2-ylamino)pyridin-2-yl]thiophene-2-carboxyamidine]: the IC50 in assay [1] was less than 100 nM; in assay [2] it was 100 to 1000 nM.
Consider `Cc1ccnc(Nc2cccc(-c3ccc(-c4noc(=O)[nH]4)s3)n2)c1` [Compound B-61], for which the figures for the half-inhibitory concentration (IC50) in assay [1] and in assay [2] were 100 to 1000 nM and greater than 1000 nM, respectively.
On to `CC(=O)c1ccc(-c2cccc(Nc3nccc(C)c3[N+](=O)[O-])n2)s1` [Compound B-62], for which the 50% inhibitory concentration (IC50) in assay [1] and in assay [2] was greater than 1000 nM in each case.
For the molecule `CC(=O)c1ccc(-c2cccc(Nc3cc(NC(C)C)ccn3)n2)s1` [Compound B-63], the half-inhibitory concentration (IC50) in assay [1] and in assay [2] was greater than 1000 nM throughout.
Regarding `CONC(=O)c1ccc(-c2cccc(Nc3cc(C)ccn3)n2)s1` [Compound B-64], the IC50 in assay [1] and in assay [2] was 100 to 1000 nM each time.
In the case of `CC(=O)c1ccc(-c2cccc(Nc3cc(C(N)=O)ccn3)n2)s1` [Compound B-65], the half-maximal inhibitory concentration (IC50) was 100 to 1000 nM in assay [1] and greater than 1000 nM in assay [2].
As for `Cc1ccnc(Nc2cccc(-c3ccc(-c4cc(C)no4)s3)n2)c1` [Compound B-66], the concentration for half-maximal inhibition (IC50) in assay [1] was 100 to 1000 nM; in assay [2], greater than 1000 nM.
In the case of `CC(=O)c1ccc(-c2cccc(Nc3ccccn3)n2)s1` [Compound B-67], the figures for the concentration for half-maximal inhibition (IC50) in assay [1] and in assay [2] were 100 to 1000 nM and greater than 1000 nM, respectively.
Regarding `CC(=O)c1csc(-c2cccc(Nc3cc(C)ccn3)n2)c1` [Compound B-68], the IC50 was 100 to 1000 nM in assay [1] and greater than 1000 nM in assay [2].
In the case of `CO/N=C(\N)c1ccc(-c2cccc(Nc3cc(C)ccn3)n2)s1` [Compound B-69], the IC50 in assay [1] and in assay [2] was 100 to 1000 nM in each case.
On to `Cc1ccnc(Nc2cccc(-c3cc(C)c(C(C)O)s3)n2)c1` (stereo not shown) [Compound B-70], for which the IC50 in assay [1] and in assay [2] was 100 to 1000 nM throughout.
On to `Cc1ccnc(Nc2cccc(-c3ccc(CC(C)O)s3)n2)c1` (stereo not shown) [Compound B-71], for which the half-maximal inhibitory concentration (IC50) in assay [1] and in assay [2] was 100 to 1000 nM each time.
On to `Cc1ccnc(Nc2cccc(-c3ccc(C(=O)NC(C)(C)CO)s3)n2)c1` [Compound B-72], for which the IC50 in assay [1] and in assay [2] was 100 to 1000 nM throughout.
For the molecule `CC(=O)c1ccc(-c2cccc(Nc3cc(OCCO)ccn3)n2)s1` [Compound B-73, 1-(5-{6-[4-(2-hydroxyethoxy)pyridin-2-ylamino]pyridin-2-yl}thiophen-2-yl)ethanone], the half-maximal inhibitory concentration (IC50) in assay [1] is less than 100 nM; in assay [2], 100 to 1000 nM.
On to `CC(=O)c1ccc(-c2cccc(Nc3cc(Cl)ccn3)n2)s1` [Compound B-74, 1-{5-[6-(4-chloropyridin-2-ylamino)pyridin-2-yl]thiophen-2-yl}ethanone], for which the IC50 in assay [1] is less than 100 nM; in assay [2], 100 to 1000 nM.
As to `C/C(=N\O)c1ccc(-c2cccc(Nc3cc(Cl)ccn3)n2)s1` [Compound B-75, 1-{5-[6-(4-chloropyridin-2-ylamino)pyridin-2-yl]thiophen-2-yl}ethanone oxime], the IC50 in assay [1] was less than 100 nM; in assay [2], 100 to 1000 nM.
For the molecule `CC(=O)c1ccc(-c2cccc(Nc3ccc(C)cn3)n2)s1` [Compound B-76], the IC50 in assay [1] and in assay [2] was greater than 1000 nM in each case.
`CCOC(=O)c1cc(Nc2cc(C)ccn2)nc(-c2ccc(C(C)=O)s2)c1` [Compound B-77]: the IC50 in assay [1] and in assay [2] was greater than 1000 nM throughout.
